{"source": "paper PMC10685318", "about": "“Trans-cyclosulfamidate mannose-configured cyclitol allows isoform-dependent inhibition of GH47 α-D-mannosidases through a bump–hole strategy” (Chemical Science, 2023)", "molecules": {"B1": {"name": "CkGH47 WT (Caulobacter sp. K31) (protein)", "chain": "AAETTPEDWKALAADVRSEFQWAWQGYVAKAWGKDEINPVSGTSRSFFIEGHDLGLSLVEALDTLWIMGLDAEFQAGVDWVKANLSFDVDGNAQVFETNIRLVGGLLSAHLASGDPVLLAKARDLADRLAKAFEASPHGLPWRYVNLRTGAVSDPETNLAEIGTYLSEFGVLSQLTGERKYFDMAKRAMRHTLDRRSKIGLMAANIHAMTGAFTSRNASIDVYADSFYEYLWDAWALFGDEDCKRWAVECVDAQLAHQAKRYDGRLWFPMVDFETGAVTGTAQSELAAYYAGLLGQVGRKAQGDDYLASFTYLQATFGVIPESIDVTTGQPRRKHTGLRPEYPDACLNLWLIDRDPRYRRLAAIHYREMKATSRAAFGYTALKDITTRPMTQDDNCPGYWWSEQMKYYYLLFSDTPRIDYGQLQLSTEANVLRGFRKV"}, "B2": {"name": "CkGH47 L310S (Caulobacter sp. K31; L310S) (protein)", "chain": "B1 chain with L286S"}}, "key": {"[1]": {"molecular_target": "GH47 model enzyme from Caulobacter K31 strain", "details": "cited from earlier work"}, "[2]": {"assay": "Chemical stability of the final compounds on storage", "assay_type": "physicochemical", "details": "storage for a week at room temperature", "text": "1,6-Cis-manno-cyclosulfate, 4, and 1,6-trans-manno-cyclosulfate, 5, were synthesized from mannose-configured cis-diol and trans-diol, respectively (ESI, Scheme S1 ^†)."}, "[3]": {"substrate": "OC[C@H]1O[C@H](O[C@@H]2C(O)O[C@H](CO)[C@@H](O)[C@@H]2O)[C@@H](O)[C@@H](O)[C@@H]1O", "assay": "purified protein, by the assay type", "details": "other: CkGH47 WT, substrate; pH 7.0"}, "[4]": {"substrate": "OC[C@H]1O[C@H](O[C@@H]2C(O)O[C@H](CO)[C@@H](O)[C@@H]2O)[C@@H](O)[C@@H](O)[C@@H]1O", "assay": "purified protein, by the assay type", "assay_type": "biochemical, Caulobacter K31 strain", "details": "other: CkGH47 L310S, substrate; pH 7.0", "method": "Fig. 4 Catalytic activity of CkGH47 WT compared to the CkGH47 L310S mutant. […] (C) The Ki, derived from the gradient (1/Ki), for 6 against CkGH47 L310S.\nTrans-Cyclosulfamidate Cyclitols Males et al.\n2.1 Biochemical and biological methods\nTo obtain Michaelis-Menten kinetics\nLastly, to achieve an inhibition constant, the\nThe gradient of the graph, V0/Vi\nAfter taking each time point, the sample was heat denatured at 95 °C for 5 minutes. The reactions were conducted in triplicate and averaged. […]\nmicroplate spectrophotometer (BioTek). The mannose detection kit (Megazyme) was used to detect […]\ndehydrogenase, was monitored at 340 nm. The absorbance after hexokinase was added to the mixture […]\n2.1.2 Isothermal titration calorimetry\nMicroCal ITC200 calorimeter at 25 °C over 20 injections. The experiment was duplicated to obtain a […]\nthe MicroCal PEAK-ITC analysis software.\n2.2 Crystallographic data collection and refinement of CkGH47\n3′ and the reverse primer was 5′-[…]-3′. Protein production and purification was followed as described previously.[3]\nReference data in the form of a\nRefinement of the model was conducted […]\nconformation was conducted using […]. Details of the data collection and refinement statistics […]\nFigures of the structure were produced by using CCP4mg."}}, "note": "Positions count from the first letter of the chain named. Names may count otherwise."}
{"molecule": "OC[C@H]1NC[C@@H](O)[C@@H](O)[C@@H]1O", "note": "[DMJ, 1-deoxymannojirimycin]", "values": [{"measurement": "Kd", "setting": "[1]", "result": 481, "unit": "nM"}]}
{"molecule": "O=S1(=O)O[C@@H]2[C@@H](O)[C@@H](O)[C@H](O)[C@@H](CO)[C@@H]2O1", "note": "[compound 4, 1,6-cis-manno-cyclosulfate]", "values": [{"measurement": "stability on storage", "setting": "[2]", "result": "compound degradation"}]}
{"molecule": "O=S1(=O)O[C@@H]2[C@@H](O)[C@@H](O)[C@H](O)[C@@H](CO)[C@H]2O1", "note": "[compound 5, 1,6-trans-manno-cyclosulfate]", "values": [{"measurement": "stability on storage", "setting": "[2]", "result": "compound degradation"}]}
{"molecule": "O=C1N[C@@H]2[C@@H](O)[C@@H](O)[C@H](O)[C@@H](CO)N2C1=O", "note": "[kifunensine]", "values": [{"measurement": "Kd", "setting": "[1]", "result": 39, "unit": "nM"}]}
{"molecule": "OC[C@@H]1[C@@H](O)[C@H](O)[C@H](O)c2nccn21", "note": "[mannoimidazole]", "values": [{"measurement": "Kd", "setting": "[1]", "result": 47, "unit": "nM"}]}
{"molecule": "B1", "values": [{"measurement": "Km", "setting": "[3]", "result": "65.7 ± 14.2", "unit": "µM"}]}
{"molecule": "B2", "values": [{"measurement": "Km", "setting": "[4]", "result": "402.8 ± 71.3", "unit": "µM"}]}
